Results: patent US8791132B2, “Compounds and methods for treatment of hypertension” (Medivation Technologies, Inc., priority 2011, dated 2014)

Key:
[1] = target: T1, human recombinant adrenergic α2B receptor (Homo sapiens, UniProt P18089); assay: Radioligand binding, adrenergic α2B ([3H]Rauwolscine); settings: [3H]Rauwolscine, repeat datapoints each shown; for Percentage inhibition of ligand binding, Adrenergic α2B (0.03 μM): compound at 0.03 μM
T1 construct: expressed in transfected cells; host or cells: CHO-K1
T1 sequence (P18089 1-450): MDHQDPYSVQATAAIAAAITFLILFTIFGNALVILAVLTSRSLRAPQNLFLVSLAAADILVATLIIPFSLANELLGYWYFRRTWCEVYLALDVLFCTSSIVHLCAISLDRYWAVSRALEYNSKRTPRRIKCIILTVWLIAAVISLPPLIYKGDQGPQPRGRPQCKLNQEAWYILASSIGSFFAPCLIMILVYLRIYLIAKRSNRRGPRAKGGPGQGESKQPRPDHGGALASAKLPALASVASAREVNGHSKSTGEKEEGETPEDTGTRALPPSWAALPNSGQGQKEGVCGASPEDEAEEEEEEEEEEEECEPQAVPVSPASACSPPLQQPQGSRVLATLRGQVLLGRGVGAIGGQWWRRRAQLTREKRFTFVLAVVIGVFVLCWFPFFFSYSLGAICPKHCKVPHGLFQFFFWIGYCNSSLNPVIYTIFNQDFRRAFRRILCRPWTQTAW
Procedure, shortened: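 Assay used CHO-K1-expressed human α2B receptor in Tris-HCl pH 7.4 buffer with MgCl2, EDTA and BSA; 60 min incubation at 25 °C.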

[2] = target: T2, human recombinant adrenergic α2A receptor (Homo sapiens, UniProt P08913); assay: Radioligand binding, adrenergic α2A ([3H]MK-912); settings: compound at 0.1 μM; [3H]MK-912; repeat datapoints each shown; 0.1 µM
T2 construct: expressed in transfected cells; host or cells: insect Sf9 cells
T2 sequence (P08913 1-465): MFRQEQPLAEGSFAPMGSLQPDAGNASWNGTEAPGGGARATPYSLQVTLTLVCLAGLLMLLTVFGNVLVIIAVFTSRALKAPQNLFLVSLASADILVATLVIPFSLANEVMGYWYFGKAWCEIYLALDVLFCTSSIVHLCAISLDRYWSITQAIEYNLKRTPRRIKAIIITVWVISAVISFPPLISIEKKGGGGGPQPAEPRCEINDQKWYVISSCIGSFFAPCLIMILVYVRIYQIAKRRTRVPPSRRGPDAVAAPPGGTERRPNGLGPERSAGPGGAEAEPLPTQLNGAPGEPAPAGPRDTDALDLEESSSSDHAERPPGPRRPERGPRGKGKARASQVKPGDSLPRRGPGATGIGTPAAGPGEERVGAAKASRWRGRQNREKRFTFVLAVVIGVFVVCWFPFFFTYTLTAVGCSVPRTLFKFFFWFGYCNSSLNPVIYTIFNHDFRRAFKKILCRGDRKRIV
Procedure, shortened: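 Sf9 membranes, 1 nM [3H]MK-912, 60 min, 25 °C, Tris-HCl pH 7.4/MgCl2/EDTA buffer. NSB: 10 μM WB-4101. Filtration, counting; % inhibition of specific binding.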

[3] = target: T3, rat adrenergic α1B receptor (Rattus norvegicus, UniProt P15823); assay: Radioligand binding, adrenergic α1B ([3H]Prazosin); settings: [3H]Prazosin, repeat datapoints each shown; for Percentage inhibition of ligand binding, Adrenergic α1B (0.1 μM): compound at 0.1 μM
T3 construct: rat adrenergic α1B receptor obtained from Wistar Rat liver; from tissue; host or cells: Wistar rat liver
T3 sequence (P15823 1-515): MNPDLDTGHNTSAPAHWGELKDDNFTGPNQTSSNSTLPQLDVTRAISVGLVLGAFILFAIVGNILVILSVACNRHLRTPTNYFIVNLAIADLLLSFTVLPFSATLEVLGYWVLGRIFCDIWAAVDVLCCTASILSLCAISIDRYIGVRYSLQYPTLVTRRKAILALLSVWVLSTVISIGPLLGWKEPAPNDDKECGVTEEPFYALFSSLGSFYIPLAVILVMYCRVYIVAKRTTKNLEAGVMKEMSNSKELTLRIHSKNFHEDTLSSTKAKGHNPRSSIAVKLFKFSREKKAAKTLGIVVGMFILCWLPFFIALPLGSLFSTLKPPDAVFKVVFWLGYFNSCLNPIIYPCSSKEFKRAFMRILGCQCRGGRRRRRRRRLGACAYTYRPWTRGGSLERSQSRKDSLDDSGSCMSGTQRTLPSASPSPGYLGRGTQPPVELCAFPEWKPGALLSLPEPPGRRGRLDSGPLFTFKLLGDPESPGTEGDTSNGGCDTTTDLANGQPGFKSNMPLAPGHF
Procedure, shortened: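 Rat α1B receptor from Wistar rat liver was incubated with 0.25 nM [3H]prazosin for 60 min at 25 °C in 50 mM Tris-HCl, pH 7.4, 0.5 mM EDTA. Non-specific binding was defined with 10 μM phentolamine. Bound radioligand was measured by filtration and counting, reported as percent inhibition of specific binding.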

Row | SMILES | Percentage inhibition of ligand binding, Adrenergic α2B (0.03 μM) [1] | Percentage inhibition of ligand binding, Adrenergic α2A (0.1 μM) [2] | inhibition at 0.1 µM ([3]; read-out: Percentage inhibition of ligand binding, Adrenergic α1B (0.1 μM), compound at 0.1 μM) | Percentage inhibition of ligand binding, Adrenergic α1B (0.1 μM) [3] | inhibition at 0.03 µM ([1]; read-out: Percentage inhibition of ligand binding, Adrenergic α2B (0.03 μM), compound at 0.03 μM)
1 | Cc1ccc2c(c1)c1c(n2CC(C)(O)c2cccnc2)C(O)CN(C)C1 (single isomer, unassigned) [II-151a] | 27% | 1% | 11% | – | –
2 | Cc1ccc2c(c1)c1c(n2CC(C)(O)c2cccnc2)C(O)CN(C)C1 (single isomer, unassigned) [II-151b] | 78% | 11% | – | 13% | –
3 | Cc1ccc2c(c1)c1c(n2CC(CC(O)C(C)(C)C)c2ccncc2)CCN(C)C1 (single isomer, unassigned) [II-227a, 6-(2,8-dimethyl-1,2,3,4-tetrahydro-pyrido[4,3-b]indol-5-yl)-2,2-dimethyl-5-pyridin-4-yl-hexan-3-ol] | 86% | 15% | – | 25% | –
4 | Cc1ccc2c(c1)c1c(n2CC(CC(O)C(C)(C)C)c2ccncc2)CCN(C)C1 (single isomer, unassigned) [II-227b, 6-(2,8-dimethyl-1,2,3,4-tetrahydro-pyrido[4,3-b]indol-5-yl)-2,2-dimethyl-5-pyridin-4-yl-hexan-3-ol] | 18% | 6% | – | 8% | –
5 | Cc1ccc2c(c1)c1c(n2CC(CC(O)C(C)(C)C)c2ccncc2)CCN(C)C1 (single isomer, unassigned) [II-227c, 6-(2,8-dimethyl-1,2,3,4-tetrahydro-pyrido[4,3-b]indol-5-yl)-2,2-dimethyl-5-pyridin-4-yl-hexan-3-ol] | 94% | 24% | – | 20% | –
6 | Cc1ccc2c(c1)c1c(n2CC(CC(O)C(C)(C)C)c2ccncc2)CCN(C)C1 (single isomer, unassigned) [II-227d, 6-(2,8-dimethyl-1,2,3,4-tetrahydro-pyrido[4,3-b]indol-5-yl)-2,2-dimethyl-5-pyridin-4-yl-hexan-3-ol] | 26% | 6% | – | 12% | –
7 | Cc1cnc2c(c1)c1c(n2CCc2ccc(C)nc2)CCN2CCCCC12 (single isomer, unassigned) [IV-8a] | – | 7% | – | 49% | 4%

Now from value to compound, other results behind:

Row | Percentage inhibition of ligand binding, Adrenergic α2B (0.03 μM) [1] | Percentage inhibition of ligand binding, Adrenergic α2A (0.1 μM) [2] | inhibition at 0.1 µM ([3]; read-out: Percentage inhibition of ligand binding, Adrenergic α1B (0.1 μM), compound at 0.1 μM) | Percentage inhibition of ligand binding, Adrenergic α1B (0.1 μM) [3] | SMILES | inhibition at 0.03 µM ([1]; read-out: Percentage inhibition of ligand binding, Adrenergic α2B (0.03 μM), compound at 0.03 μM)
8 | 61% | 6% | – | 2% | Cc1ccc2c(c1)c1c(n2CC(C)(O)c2cccnc2)CCN(C)C1C (single isomer, unassigned) [II-152b] | –
9 | 14% | 1% | – | 6% | Cc1ccc2c(c1)c1c(n2CC(C)(O)c2cccnc2)CCN(C)C1C (single isomer, unassigned) [II-152c] | –
10 | 102% | 22% | – | 95% | Cc1cnc2c(c1)c1c(n2CCc2ccncc2)CCN2CCCC12 (single isomer, unassigned) [II-244a, 9-methyl-6-(2-pyridin-4-yl-ethyl)-2,3,4,5,6,10c-hexahydro-1H-3a,6,7-triaza-cyclopenta[c]fluorene] | –
11 | 16% | 2% | – | 12% | Cc1cnc2c(c1)c1c(n2CCc2ccncc2)CCN2CCCC12 (single isomer, unassigned) [II-244b, 9-methyl-6-(2-pyridin-4-yl-ethyl)-2,3,4,5,6,10c-hexahydro-1H-3a,6,7-triaza-cyclopenta[c]fluorene] | –
